Experimental data as given in patent publication US20250290057A1, “LYTIC AGENT FOR ENTEROCOCCUS FAECALIS” (priority 2022, published 2025).
≈ marks a conversion by molar mass, not a printed value. Like-named read-outs stand apart in the source and are kept apart here.

Experiments:
E. faecium isolates = assay: Minimal inhibitory concentration of antibacterial agents, "Eiken" DP42 dry plate; assay type: cell-based, Enterococcus faecium; details: all E. faecium (19 strains)
Method: (§1) The sensitivity to an antibacterial agent for each of the above-described 30 Enterococcus bacterial strains was invenstigated. Specifically, the bacterial strains prepared in 1 McFarland standard with physiological saline were diluted 500-fold with a BHI culture medium, and then aerobically cultured in solid-phase wells of an “Eiken” DP42 dry plate (Eiken Chemical Co., Ltd., Tokyo, Japan) for 24 hours.
(§2) The minimal inhibitory concentration of any one of the antibacterial agents, i.e., daptomycin (DAP), vancomycin (VCM), teicoplanin (TEIC), and linezolid (LZD), was determined in accordance with the instruction of the product. […] The results obtained by testing resistance to the antibacterial agents of the E. faecalis strains (11 strains) are shown in Table 1 below.

[1] = test system: E. faecalis strains JCM5803, JCM8902; assay: Vancomycin resistance evaluation (method of Example 2 (2)); assay type: cell-based; design: key: resistant: +; nonresistant: −
Method: as §1, §2
(§3) The hemolytic activity of each of the bacterial strains was measured with a hemolysis assay using a Nissui Plate Horse Blood Agar medium. The cytolysin-related gene was detected with PCR. The vancomycin resistance was evaluated using the method described in (2) in Example 2. The vanA gene and the vanB gene that are vancomycin-resistant genes were detected with PCR. Furthermore, each bacterial strain was aerobically cultured in a BHI culture medium, and centrifuged at 300×g for 5 minutes for collection. The cell pellets were washed, and resuspended in a HiTrap buffer. The phage-derived endolysin was added at a final concentration of 50 μg/mL to the cell resuspension liquid. The resulting suspension was incubated at 37° C., and the lytic activity was measured, using the presence or absence of a bacterial lump as an index.

[2] = test system: E. faecium strain JCM5804; assay: as above; assay type: cell-based; design: key: resistant: +; nonresistant: −
Method: as §1, §2, §3

E. faecalis isolates = assay: Minimal inhibitory concentration of antibacterial agents, "Eiken" DP42 dry plate; assay type: cell-based, Enterococcus faecalis; details: for MIC: Enterococcus faecalis
Method: as §1, §2

CN[C@H](CC(C)C)C(=O)N[C@H]1C(=O)N[C@@H](CC(N)=O)C(=O)N[C@H]2C(=O)N[C@H]3C(=O)N[C@H](C(=O)N[C@H](C(=O)O)c4cc(O)cc(O)c4-c4cc3ccc4O)[C@H](O)c3ccc(c(Cl)c3)Oc3cc2cc(c3O[C@@H]2O[C@H](CO)[C@@H](O)[C@H](O)[C@H]2O[C@H]2C[C@](C)(N)[C@H](O)[C@H](C)O2)Oc2ccc(cc2Cl)[C@H]1O [vancomycin] was tested, and the “Sensitivity of strains to antibacterial agent” value (E. faecium isolates) was “exhibited sensitivity”, the Vancomycin-resistance ([1]; strain JCM5803) was “−” and the Vancomycin-resistance ([1]; strain JCM8902) was “+”. For the same compound, the Vancomycin-resistance [2] was “−”, the MIC (E. faecalis isolates; read-out: Minimal inhibitory concentration, E. faecalis strain OCU009_35_4) was 2 µg/mL (≈ 1.38 µM) and the MIC (E. faecalis isolates; read-out: Minimal inhibitory concentration, E. faecalis strain OCU009_35_10) was 4 µg/mL (≈ 2.76 µM). It also gave an MIC (E. faecalis isolates; read-out: Minimal inhibitory concentration, E. faecalis strain OCU015_56_6) of 2 µg/mL (≈ 1.38 µM), an MIC (E. faecalis isolates; read-out: Minimal inhibitory concentration, E. faecalis strain OCU015_56_7) of 2 µg/mL (≈ 1.38 µM) and an MIC (E. faecalis isolates; read-out: Minimal inhibitory concentration, E. faecalis strain OCU031_7_1) of 4 µg/mL (≈ 2.76 µM). It also gave an MIC (E. faecalis isolates; read-out: Minimal inhibitory concentration, E. faecalis strain OCU031_7_9) of 2 µg/mL (≈ 1.38 µM), an MIC (E. faecalis isolates; read-out: Minimal inhibitory concentration, E. faecalis strain OCU031_14_5) of 4 µg/mL (≈ 2.76 µM) and an MIC (E. faecalis isolates; read-out: Minimal inhibitory concentration, E. faecalis strain OCU031_14_8) of 2 µg/mL (≈ 1.38 µM). It also gave an MIC (E. faecalis isolates; read-out: Minimal inhibitory concentration, E. faecalis strain OCU031_pre_6) of 2 µg/mL (≈ 1.38 µM), an MIC (E. faecalis isolates; read-out: Minimal inhibitory concentration, E. faecalis strain OCU031_pre_7) of 2 µg/mL (≈ 1.38 µM) and an MIC (E. faecalis isolates; read-out: Minimal inhibitory concentration, E. faecalis strain OCU031_pre_10) of 2 µg/mL (≈ 1.38 µM). For the same compound, the “Sensitivity of strains to antibacterial agent” value (E. faecalis isolates; all E. faecalis strains (11 strains)) was “exhibited sensitivity”.
